This note sets out measurements from patent US9216999B2, “Substituted pyrrolo[2,3-h][1,6]naphthyridines and compositions thereof as JAK inhibitors” (priority 2011, dated 2015).

Where two headings read alike, the source gives them in different places.

Common to all, as to type: biochemical
One assay concerns the target Tyk2 (Homo sapiens (Human), UniProt P29597). Description: Enzyme assay (Assay Example^a 1), Tyk2. The note with it: ATP 100 μM.
A further assay addresses JAK1 (Homo sapiens (Human), UniProt P23458). In words: Enzyme assay (Assay Example^a 1), JAK1. The following applies: ATP 100 μM.
Another assay addresses JAK3 (Homo sapiens (Human), UniProt P52333). In words: Enzyme assay (Assay Example^a 1), JAK3.

JAK3, sequence (P52333 whole entry): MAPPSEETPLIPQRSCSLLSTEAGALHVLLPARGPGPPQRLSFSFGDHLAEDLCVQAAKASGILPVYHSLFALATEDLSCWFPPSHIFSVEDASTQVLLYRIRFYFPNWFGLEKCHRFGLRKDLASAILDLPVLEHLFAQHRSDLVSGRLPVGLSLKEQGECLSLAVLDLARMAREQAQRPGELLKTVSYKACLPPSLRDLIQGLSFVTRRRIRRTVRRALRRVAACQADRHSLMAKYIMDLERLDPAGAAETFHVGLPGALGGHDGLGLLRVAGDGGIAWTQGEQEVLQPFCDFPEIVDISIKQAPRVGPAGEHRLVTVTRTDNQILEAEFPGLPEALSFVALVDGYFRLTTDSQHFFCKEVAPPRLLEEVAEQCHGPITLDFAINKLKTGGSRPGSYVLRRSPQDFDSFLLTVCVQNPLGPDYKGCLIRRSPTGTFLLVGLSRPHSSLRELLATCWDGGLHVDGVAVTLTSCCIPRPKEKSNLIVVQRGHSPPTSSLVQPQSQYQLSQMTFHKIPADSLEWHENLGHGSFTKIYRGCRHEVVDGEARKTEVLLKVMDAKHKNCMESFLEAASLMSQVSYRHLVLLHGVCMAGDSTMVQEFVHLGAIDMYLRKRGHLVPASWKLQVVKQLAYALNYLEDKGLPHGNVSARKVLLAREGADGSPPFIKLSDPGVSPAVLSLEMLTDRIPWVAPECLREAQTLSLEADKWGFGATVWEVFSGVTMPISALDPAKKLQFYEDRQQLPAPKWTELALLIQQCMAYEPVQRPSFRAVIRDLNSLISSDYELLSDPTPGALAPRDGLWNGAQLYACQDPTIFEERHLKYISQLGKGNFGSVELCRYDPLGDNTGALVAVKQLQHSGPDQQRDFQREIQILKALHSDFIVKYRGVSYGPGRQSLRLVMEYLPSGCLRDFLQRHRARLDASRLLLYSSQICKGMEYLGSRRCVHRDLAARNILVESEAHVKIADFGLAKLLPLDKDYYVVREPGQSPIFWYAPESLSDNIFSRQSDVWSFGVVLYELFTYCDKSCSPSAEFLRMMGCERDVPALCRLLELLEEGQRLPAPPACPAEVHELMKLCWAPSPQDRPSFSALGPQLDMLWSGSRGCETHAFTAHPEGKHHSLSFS
Tyk2, sequence (P29597 whole entry): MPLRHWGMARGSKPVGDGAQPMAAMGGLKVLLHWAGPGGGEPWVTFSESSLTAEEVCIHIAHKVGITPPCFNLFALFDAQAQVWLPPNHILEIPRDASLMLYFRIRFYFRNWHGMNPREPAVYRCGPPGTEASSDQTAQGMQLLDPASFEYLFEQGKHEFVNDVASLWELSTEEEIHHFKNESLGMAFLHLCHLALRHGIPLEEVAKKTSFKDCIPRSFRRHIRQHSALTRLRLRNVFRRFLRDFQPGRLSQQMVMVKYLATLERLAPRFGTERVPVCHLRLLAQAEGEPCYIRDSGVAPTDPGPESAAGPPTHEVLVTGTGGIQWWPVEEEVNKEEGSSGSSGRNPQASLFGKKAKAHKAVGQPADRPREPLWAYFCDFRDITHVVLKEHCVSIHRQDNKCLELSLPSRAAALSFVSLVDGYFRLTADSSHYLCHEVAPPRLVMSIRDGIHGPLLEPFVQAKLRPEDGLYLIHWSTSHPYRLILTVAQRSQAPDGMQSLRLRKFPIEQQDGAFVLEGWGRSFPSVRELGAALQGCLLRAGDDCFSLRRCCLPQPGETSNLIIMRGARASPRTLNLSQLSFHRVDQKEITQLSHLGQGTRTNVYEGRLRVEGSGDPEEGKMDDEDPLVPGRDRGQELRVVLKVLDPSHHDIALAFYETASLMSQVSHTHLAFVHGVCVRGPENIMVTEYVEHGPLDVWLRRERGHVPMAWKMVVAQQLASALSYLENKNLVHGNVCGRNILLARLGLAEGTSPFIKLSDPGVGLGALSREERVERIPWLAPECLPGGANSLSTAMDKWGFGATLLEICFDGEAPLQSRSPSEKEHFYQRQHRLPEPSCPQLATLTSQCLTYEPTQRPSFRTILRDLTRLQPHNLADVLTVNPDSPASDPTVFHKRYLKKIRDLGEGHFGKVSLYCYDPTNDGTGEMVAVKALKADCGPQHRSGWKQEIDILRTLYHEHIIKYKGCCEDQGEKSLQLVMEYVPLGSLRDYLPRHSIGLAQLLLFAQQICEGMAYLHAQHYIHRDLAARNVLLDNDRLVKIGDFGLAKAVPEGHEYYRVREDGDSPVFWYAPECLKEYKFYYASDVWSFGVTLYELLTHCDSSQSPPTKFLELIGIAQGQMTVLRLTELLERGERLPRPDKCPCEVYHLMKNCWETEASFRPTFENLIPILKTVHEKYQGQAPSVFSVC

The compound `OC(CN[C@H]1CC[C@H](c2nnn3cnc4[nH]ccc4c23)CC1)c1ccccc1` (mixture of isomers) [202b, 2-{[trans-4-(7H-pyrrolo[3,2-e][1,2,3]triazolo[1,5-c]pyrimidin-1-yl)cyclohexyl]amino}-1-phenylethanol] returned a concentration for half-maximal inhibition (IC50) against Tyk2 (Table^a 154) of 0.26 µM.
On to `O=C(OCc1ccccc1)N1CCCC(c2ncn3cnc4[nH]ccc4c23)C1` (racemic) [compound 3], for which the figures for the half-inhibitory concentration (IC50) on JAK1 and on JAK3 (ATP 100 μM) were 0.057 µM and 1.4 µM, respectively.
The compound `CC(C)(C)OC(=O)N1CCCC(c2nnn3cnc4[nH]ccc4c23)C1` (racemic) [compound 13] registered an IC50 on Tyk2 (Table^a 154) above 1 µM.
As to `c1ccc(CN2CCCC(c3nnn4cnc5[nH]ccc5c34)C2)cc1` (racemic) [compound 16], the IC50 came out at 0.28 µM against JAK1 (Table^a 154) and 5.3 µM at JAK3 (ATP 100 μM, Table^a 154).
Turning to `c1cncc(CN2CCCC(c3nnn4cnc5[nH]ccc5c34)C2)c1` (racemic) [compound 18], on Tyk2 (Table^a 154), the half-maximal inhibitory concentration (IC50) was above 1 µM.
With `O=C(Nc1nncs1)N1CCCC(c2nnn3cnc4[nH]ccc4c23)C1` (racemic) [compound 20], the IC50 amounted to 0.019 µM against JAK1 (Table^a 154) and 0.42 µM at Tyk2 (Table^a 154).
As for `FC(F)(F)c1ccc(CN2CCCC(c3nnn4cnc5[nH]ccc5c34)C2)cc1` (racemic) [compound 23], the IC50 on JAK1 (Table^a 154) was found to be 0.55 µM.
At Tyk2 (Table^a 154), `OC(CNC[C@H]1CC[C@H](c2nnn3cnc4[nH]ccc4c23)CC1)c1ccccc1` (mixture of isomers) [compound 186, 2-({[trans-4-(7H-pyrrolo[3,2-e][1,2,3]triazolo[1,5-c]pyrimidin-1-yl)cyclohexyl]methyl}amino)-1-phenylethanol] had an IC50 of 0.044 µM.
With `O=C(OCc1ccccc1)N1CCC(c2nnn3cnc4[nH]ccc4c23)C1` (racemic) [compound 211, Benzyl 3-(7H-pyrrolo[3,2-e][1,2,3]triazolo[1,5-c]pyrimidin-1-yl)pyrrolidine-1-carboxylate], the IC50 against JAK1 (Table^a 154) turned out to be 0.12 µM.
On to `CC(c1ccccc1)N1CCC(c2nnn3cnc4[nH]ccc4c23)CC1` (racemic) [compound 245, 1-[1-(1-phenylethyl)piperidin-4-yl]-7H-pyrrolo[3,2-e][1,2,3]triazolo[1,5-c]pyrimidine], for which the half-maximal inhibitory concentration (IC50) against JAK3 (ATP 100 μM) and against Tyk2 was above 1 µM each time.
Regarding `Clc1ccc(CN[C@H]2CC[C@@H](c3nnn4cnc5[nH]ccc5c34)CC2)cc1` [197a, cis-N-(4-chlorobenzyl)-4-(7H-pyrrolo[3,2-e][1,2,3]triazolo[1,5-c]pyrimidin-1-yl)cyclohexanamine], the half-inhibitory concentration (IC50) on JAK1 (Table^a 154) was 0.016 µM; against JAK3 (ATP 100 μM, Table^a 154), above 1 µM; against Tyk2 (Table^a 154), 0.15 µM.
Taken in the same sequence, the figures for `Clc1ccc(CN[C@H]2CC[C@H](c3nnn4cnc5[nH]ccc5c34)CC2)cc1` [197b, trans-N-(4-chlorobenzyl)-4-(7H-pyrrolo[3,2-e][1,2,3]triazolo[1,5-c]pyrimidin-1-yl)cyclohexanamine] were 0.0054 µM, 0.52 µM and 0.11 µM.
`O[C@H](CN[C@H]1CC[C@H](c2nnn3cnc4[nH]ccc4c23)CC1)c1ccccc1` [203b, (S)-2-{[trans-4-(7H-pyrrolo[3,2-e][1,2,3]triazolo[1,5-c]pyrimidin-1-yl)cyclohexyl]amino}-1-phenylethanol] gave a half-inhibitory concentration (IC50) on Tyk2 (Table^a 154) of 0.33 µM.
The same measure, in the same setting: next, `O[C@@H](CN[C@H]1CC[C@H](c2nnn3cnc4[nH]ccc4c23)CC1)c1ccccc1` [204b, (R)-2-{[trans-4-(7H-pyrrolo[3,2-e][1,2,3]triazolo[1,5-c]pyrimidin-1-yl)cyclohexyl]amino)-1-phenylethanol]: 0.35 µM.
Take `FC(F)CN[C@H]1CC[C@H](c2nnn3cnc4[nH]ccc4c23)CC1` [399b, trans-N-(2,2-difluoroethyl)-4-(7H-pyrrolo[3,2-e][1,2,3]triazolo[1,5-c]pyrimidin-1-yl)cyclohexanamine]: the IC50 is 0.0075 µM at JAK1, above 1 µM against JAK3 (ATP 100 μM) and 0.2 µM on Tyk2.
Regarding `FC(F)(F)C(N[C@H]1CC[C@H](c2nnn3cnc4[nH]ccc4c23)CC1)C(F)(F)F` [400b, trans-N-(1,1,1,3,3,3-hexafluoropropan-2-yl)-4-(7H-pyrrolo[3,2-e][1,2,3]triazolo[1,5-c]pyrimidin-1-yl)cyclohexanamine], the 50% inhibitory concentration (IC50) against JAK1 is 0.042 µM; on JAK3 (ATP 100 μM), above 1 µM; at Tyk2 it was 0.84 µM.
Consider `Cc1nc(C2CCCCC2)c2c3cc[nH]c3ncn12` [compound 1], for which the IC50 on JAK1 worked out at 0.23 µM; against JAK3, 1.4 µM; at Tyk2 it was 0.59 µM.
`CC1CCN(C(=O)CC#N)CC1c1nnn2cnc3[nH]ccc3c12` (stereo not drawn) [compound 12]: the concentration for half-maximal inhibition (IC50) against JAK1 (Table^a 154) was 0.021 µM; on Tyk2 (Table^a 154), 0.91 µM.
Taken in the same sequence, the figures for `FC(F)(F)c1cc(CN2CCC(c3nnn4cnc5[nH]ccc5c34)CC2)cc(C(F)(F)F)c1` [compound 47] were 0.78 µM and above 1 µM.
On to `CC(C)(C)OC(=O)N[C@H]1CC[C@H](c2nnn3cnc4[nH]ccc4c23)CC1` [compound 59], for which the concentration for half-maximal inhibition (IC50) against JAK3 (ATP 100 μM, Table^a 154) was above 1 µM; against Tyk2 (Table^a 154) it was above 1 µM.
As for `N[C@H]1CC[C@H](c2nnn3cnc4[nH]ccc4c23)CC1` [compound 61], the half-inhibitory concentration (IC50) against Tyk2 (Table^a 154) was 0.44 µM.
For `COC[C@H]1CC[C@H](c2nnn3cnc4[nH]ccc4c23)CC1` [compound 62], the half-inhibitory concentration (IC50) was found to be 0.47 µM on JAK3 (ATP 100 μM, Table^a 154) and 0.14 µM against Tyk2 (Table^a 154).
Take `CO[C@H]1CC[C@H](c2nnn3cnc4[nH]ccc4c23)CC1` [compound 63]: the IC50 on JAK1 (Table^a 154) came out at 0.011 µM.
Consider `c1cc2c(ncn3nnc(C4CC5CCC4C5)c23)[nH]1` (stereo not drawn) [compound 65], for which the IC50 is 0.15 µM on JAK3 (ATP 100 μM, Table^a 154) and 0.025 µM against Tyk2 (Table^a 154).
`FC(F)(F)c1ccc(CN2CCC(c3[nH]c(=S)n4cnc5[nH]ccc5c34)CC2)cc1` [compound 86] had an IC50 at JAK1 (Table^a 154) of 0.02 µM.
On JAK1 (Table^a 154), `Fc1ccc(CNC[C@H]2CC[C@H](c3nnn4cnc5[nH]ccc5c34)CC2)cc1C(F)(F)F` [compound 112] gave an IC50 of 0.0049 µM.
On to `Fc1ccc(NC[C@H]2CC[C@H](c3nnn4cnc5[nH]ccc5c34)CC2)c(C(F)(F)F)c1` [compound 117], for which the values for the IC50 at JAK1 (Table^a 154) and against JAK3 were 0.039 µM and above 1 µM, respectively.
For `Cc1cc(OC(F)(F)F)ccc1NC1CCC(c2nnn3cnc4[nH]ccc4c23)CC1` (stereo not drawn) [compound 133], the IC50 is 0.12 µM against JAK1 (Table^a 154), above 1 µM at JAK3 and above 1 µM at Tyk2 (Table^a 154).
On to `COc1ccc(CN2CCC(c3nnn4cnc5[nH]ccc5c34)CC2)cn1` [compound 170, 1-{1-[(6-methoxypyridin-3-yl)methyl]piperidin-4-yl}-7H-pyrrolo[3,2-e][1,2,3]triazolo[1,5-c]pyrimidine], for which the IC50 at JAK1 (Table^a 154) was 0.021 µM; on JAK3 (ATP 100 μM, Table^a 154), 0.52 µM; against Tyk2 (Table^a 154), above 1 µM.
Taken in the same sequence, the figures for `FC(F)(F)CNC[C@H]1CC[C@H](c2nnn3cnc4[nH]ccc4c23)CC1` [compound 188, N-{[trans-4-(7H-pyrrolo[3,2-e][1,2,3]triazolo[1,5-c]pyrimidin-1-yl)cyclohexyl]methyl}-2,2,2-trifluoroethanamine] were 0.0012 µM, 0.11 µM and 0.063 µM.
Regarding `CN(C)S(=O)(=O)c1ccc2c(c1)CCN2C[C@H]1CC[C@H](c2nnn3cnc4[nH]ccc4c23)CC1` [compound 190, 1-{[trans-4-(7H-pyrrolo[3,2-e][1,2,3]triazolo[1,5-c]pyrimidin-1-yl)cyclohexyl]methyl}-N,N-dimethylindoline-5-sulfonamide], the IC50 is 0.022 µM at JAK1 (Table^a 154); above 1 µM on JAK3 (ATP 100 μM, Table^a 154); 0.61 µM on Tyk2 (Table^a 154).
Regarding `N#Cc1cc(CN2CCC(c3nnn4cnc5[nH]ccc5c34)CC2)ccc1F` [compound 223, 5-{[4-(7H-pyrrolo[3,2-e][1,2,3]triazolo[1,5-c]pyrimidin-1-yl)piperidin-1-yl]methyl}-2-fluorobenzonitrile], the IC50 against JAK1 is 0.015 µM; at JAK3 (ATP 100 μM), 0.94 µM; against Tyk2 it was above 1 µM.
In the same order, the values of `N#C/C(=C\N1CCC(c2nnn3cnc4[nH]ccc4c23)CC1)c1ccc(Cl)cc1` [compound 235, (Z)-3-[4-(7H-pyrrolo[3,2-e][1,2,3]triazolo[1,5-c]pyrimidin-1-yl)piperidin-1-yl]-2-(4-chlorophenyl)acrylonitrile] are 0.056 µM, above 1 µM and above 1 µM.
Taken in the same sequence, the figures for `Cc1ccc(CN2CCC(c3nnn4cnc5[nH]ccc5c34)CC2)s1` [compound 236, 1-{1-[(5-methylthiophen-2-yl)methyl]piperidin-4-yl}-7H-pyrrolo[3,2-e][1,2,3]triazolo[1,5-c]pyrimidine] were 0.0068 µM, 0.45 µM and above 1 µM.
With `NC(=O)c1ccc(CN2CCC(c3nnn4cnc5[nH]ccc5c34)CC2)cc1` [compound 241, 4-{[4-(7H-pyrrolo[3,2-e][1,2,3]triazolo[1,5-c]pyrimidin-1-yl)piperidin-1-yl]methyl}benzamide], the IC50 at JAK1 was 0.046 µM; against JAK3 (ATP 100 μM), above 1 µM; on Tyk2 it was above 1 µM.
At Tyk2, `O[C@@H](CNC[C@H]1CC[C@H](c2nnn3cnc4[nH]ccc4c23)CC1)c1ccccc1` [compound 276, (R)-2-({[trans-4-(7H-pyrrolo[3,2-e][1,2,3]triazolo[1,5-c]pyrimidin-1-yl)cyclohexyl]methyl}amino)-1-phenylethanol] displayed an IC50 of 0.032 µM.
Same read-out and setting: next, `O[C@H](CNC[C@H]1CC[C@H](c2nnn3cnc4[nH]ccc4c23)CC1)c1ccccc1` [compound 277, (S)-2-({[trans-4-(7H-pyrrolo[3,2-e][1,2,3]triazolo[1,5-c]pyrimidin-1-yl)cyclohexyl]methyl}amino)-1-phenylethanol]: 0.05 µM.
As for `O=C1NOC[C@H]1NC[C@H]1CC[C@H](c2nnn3cnc4[nH]ccc4c23)CC1` [compound 288, (R)-4-({[trans-4-(7H-pyrrolo[3,2-e][1,2,3]triazolo[1,5-c]pyrimidin-1-yl)cyclohexyl]methyl}amino)isoxazolidin-3-one], the half-inhibitory concentration (IC50) against JAK1 is 0.046 µM; at Tyk2, 0.37 µM.

By IC50 is commonly meant the concentration needed to halve the response being measured. The low end stands for inhibition by little substance, the high end for a need for much substance.
